These results are taken from paper PMC4766392, “Identification and Characterization of the Glucose-6-Phosphate Dehydrogenase Gene Family in the Para Rubber Tree, Hevea brasiliensis” (Frontiers in Plant Science, 2016).

Experiment in all cases: NADPH formation at […] nm, commercial kit, E. coli supernatant
Common to all, as to type: biochemical
Holding throughout (conditions): 25°C, MBP fusion, empty-vector control

In one experiment the target is T1, HbG6PDH2 (Hevea brasiliensis, UniProt A0A068LJJ9).
T1 construct: gene G6PDH-2; forward primer starts at ATGGCGCCCCTTTC

Another experiment concerns the target T2, HbG6PDH1 (Hevea brasiliensis, UniProt A0A068LLN2).
T2 construct: gene G6PDH-1; forward primer starts at ATGCCAAGAAAATATGG

The next experiment deals with T3, HbG6PDH3 (Hevea brasiliensis, UniProt A0A068LJY6).
T3 construct: gene G6PDH-3; primer with start codon ATGGGTTCGGGTCAGTGG

A further experiment has as its target T4, HbG6PDH4 (Hevea brasiliensis, UniProt A0A068LJB4).
T4 construct: gene G6PDH-4; primer with start codon ATGTCGATGTCAATTTC

Setting [1] is: glucose-6-phosphate as co-substrate.

T1 sequence (A0A068LJJ9 entry or part of it): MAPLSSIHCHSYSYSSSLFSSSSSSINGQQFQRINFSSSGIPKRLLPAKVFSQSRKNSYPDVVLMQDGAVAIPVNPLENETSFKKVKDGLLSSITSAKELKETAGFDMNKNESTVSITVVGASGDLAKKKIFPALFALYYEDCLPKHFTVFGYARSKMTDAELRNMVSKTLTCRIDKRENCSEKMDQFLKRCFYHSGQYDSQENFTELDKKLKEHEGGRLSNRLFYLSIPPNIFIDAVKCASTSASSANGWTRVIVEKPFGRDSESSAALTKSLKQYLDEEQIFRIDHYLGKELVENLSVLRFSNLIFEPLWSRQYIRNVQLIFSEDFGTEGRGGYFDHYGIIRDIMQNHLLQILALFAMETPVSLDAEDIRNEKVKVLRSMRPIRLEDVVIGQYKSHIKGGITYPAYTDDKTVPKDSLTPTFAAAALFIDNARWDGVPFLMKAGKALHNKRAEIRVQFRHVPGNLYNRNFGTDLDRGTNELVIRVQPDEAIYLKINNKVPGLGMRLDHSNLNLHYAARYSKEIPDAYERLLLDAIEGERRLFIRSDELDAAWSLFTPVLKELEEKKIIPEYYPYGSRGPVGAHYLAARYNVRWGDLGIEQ
T4 sequence (A0A068LJB4 entry or part of it): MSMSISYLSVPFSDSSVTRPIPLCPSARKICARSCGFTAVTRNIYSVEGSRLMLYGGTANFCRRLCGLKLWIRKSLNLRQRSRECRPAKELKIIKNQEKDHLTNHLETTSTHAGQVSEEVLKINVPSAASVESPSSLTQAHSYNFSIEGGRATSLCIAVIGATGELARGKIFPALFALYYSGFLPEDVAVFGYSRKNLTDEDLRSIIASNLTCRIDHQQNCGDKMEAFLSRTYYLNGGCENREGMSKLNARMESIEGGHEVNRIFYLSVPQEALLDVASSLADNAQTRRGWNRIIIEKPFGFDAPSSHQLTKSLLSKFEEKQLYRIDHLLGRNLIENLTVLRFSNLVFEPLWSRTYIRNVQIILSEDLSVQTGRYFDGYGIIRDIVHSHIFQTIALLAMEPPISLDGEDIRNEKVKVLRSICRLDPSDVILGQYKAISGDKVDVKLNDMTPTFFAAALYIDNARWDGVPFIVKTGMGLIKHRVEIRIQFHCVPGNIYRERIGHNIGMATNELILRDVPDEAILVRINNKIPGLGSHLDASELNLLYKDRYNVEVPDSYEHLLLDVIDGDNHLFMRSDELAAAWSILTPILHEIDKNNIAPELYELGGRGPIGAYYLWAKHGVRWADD
T3 sequence (A0A068LJY6 entry or part of it): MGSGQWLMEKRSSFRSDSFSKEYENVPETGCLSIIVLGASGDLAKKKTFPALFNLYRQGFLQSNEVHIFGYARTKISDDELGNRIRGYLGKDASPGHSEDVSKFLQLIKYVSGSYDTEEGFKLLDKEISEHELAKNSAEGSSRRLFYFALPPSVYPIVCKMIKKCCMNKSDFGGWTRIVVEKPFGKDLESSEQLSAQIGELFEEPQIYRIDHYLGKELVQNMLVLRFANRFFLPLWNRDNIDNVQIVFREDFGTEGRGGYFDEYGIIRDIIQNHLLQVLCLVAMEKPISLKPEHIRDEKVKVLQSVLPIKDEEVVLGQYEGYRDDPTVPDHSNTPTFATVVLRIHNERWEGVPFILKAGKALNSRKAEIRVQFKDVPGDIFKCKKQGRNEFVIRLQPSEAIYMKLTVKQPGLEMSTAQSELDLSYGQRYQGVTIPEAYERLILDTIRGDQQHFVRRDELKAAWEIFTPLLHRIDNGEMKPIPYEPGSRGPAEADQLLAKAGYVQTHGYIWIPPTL
T2 sequence (A0A068LLN2 entry or part of it): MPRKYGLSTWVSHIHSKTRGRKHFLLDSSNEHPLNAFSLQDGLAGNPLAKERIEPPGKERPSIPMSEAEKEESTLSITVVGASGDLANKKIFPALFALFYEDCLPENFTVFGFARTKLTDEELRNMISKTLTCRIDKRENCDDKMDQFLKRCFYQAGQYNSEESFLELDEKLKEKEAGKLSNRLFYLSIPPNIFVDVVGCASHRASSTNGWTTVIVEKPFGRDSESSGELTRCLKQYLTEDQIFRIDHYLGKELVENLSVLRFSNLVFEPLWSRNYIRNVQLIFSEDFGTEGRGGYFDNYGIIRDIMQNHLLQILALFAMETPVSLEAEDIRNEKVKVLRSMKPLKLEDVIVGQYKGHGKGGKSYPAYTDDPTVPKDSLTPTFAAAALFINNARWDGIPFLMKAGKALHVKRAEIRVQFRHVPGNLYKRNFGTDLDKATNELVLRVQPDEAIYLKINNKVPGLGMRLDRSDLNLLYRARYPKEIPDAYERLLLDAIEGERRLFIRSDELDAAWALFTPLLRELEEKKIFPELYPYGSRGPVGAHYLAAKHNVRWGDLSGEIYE

On to `NC(=O)c1ccc[n+]([C@@H]2O[C@H](COP(=O)(O)OP(=O)(O)OC[C@H]3O[C@@H](n4cnc5c(N)ncnc54)[C@H](OP(=O)(O)O)[C@@H]3O)[C@@H](O)[C@H]2O)c1` [NADP^+], for which the “NADPH formation at 340 nm, commercial kit, E. coli supernatant” value on HbG6PDH2 (setting [1]), on HbG6PDH1 (setting [1]), at HbG6PDH3 (setting [1]) and on HbG6PDH4 (setting [1]) was “all four HbG6PDH genes encode enzymatically active G6PDHs” in each case.

For the molecule `O=P(O)(O)OC[C@H]1OC(O)[C@H](O)[C@@H](O)[C@@H]1O` (some centres unmarked) [glucose-6-phosphate], the “NADPH formation at 340 nm, commercial kit, E. coli supernatant” value at HbG6PDH2 (NADP+ as co-substrate), at HbG6PDH1 (NADP+ as co-substrate), at HbG6PDH3 (NADP+ as co-substrate) and on HbG6PDH4 (NADP+ as co-substrate) was “all four HbG6PDH genes encode enzymatically active G6PDHs” throughout.
